Patent US8734869B2, “Synergistic pest-control compositions” (TyraTech, Inc., priority 2007, dated 2014)

Tests used:
[1] = system: male German Cockroach; assay: Time to kill: five microliters applied to the sternum, time to death recorded (stopped at one hour); assay type: in vivo; details: five microliters on sternum
Procedure: Five microliters of the oil or oil blend listed in the table below were applied to the sternum of a male German Cockroach, and the time to death was recorded (time keeping was stopped at one hour). Sample size N=60 for Blend 24 and N=40 for each of the oil components. Components were diluted with acetone. Five microliters of the oil or oil blend listed in the table below were applied to the sternum of a male German Cockroach, and the time to death was recorded (time keeping was stopped at one hour). Sample size N=60 for Blend 41 and each of the oil components. Components were diluted with acetone. Five microliters of the oil or oil blend listed in the table below were applied to the sternum of a male German Cockroach, and the time to death was recorded (time keeping was stopped at one hour). Sample size N=40 for Blend 41 and each of the oil components. Components were diluted with acetone.

[2] = system: American cockroaches; assay: Residual activity of stabilized compositions, treated jars reused, mortality 24 hours after exposure; assay type: in vivo, American cockroach; details: tested about 48 hours after application
Procedure: A solution of 5% thyme crystals (TC) is prepared in acetone and about 2 ml of the solution is applied to the bottom of a glass jar. About 2 ml of six compositions (R1-R6), set forth in Table 19-A, are each applied to the bottom of a separate jar. Thyme Crystals (5%, by weight) are combined with the six compositions (R1-R6) to produce six formulations. About 2 ml of each formulation is applied to a separate jar.
[…] Mortality is recorded about 24 hours after exposure. All jars are kept under room temperature and reused at subsequent time points to evaluate residual activity. […] Mortality is recorded about 24 hours after each exposure.

[3] = system: American cockroaches; assay: Residual activity of stabilized compositions, separate jar per time period; assay type: in vivo, American cockroach; details: tested about 48 hours after application; separate jar per time point
Procedure: In studies where treatment jars are reused at various time intervals, as described in Example 19, the materials in the jars are lost after each exposure due to contact with and transfer to the insect body, rather than via loss due to volatility of the material. As such, additional studies are conducted wherein a separate jar is prepared for each time period.
A solution of 5% thyme crystal (TC) is prepared in acetone and about 2 ml of the solution is applied to the bottom of five separate glass jars, one for each time point at which mortality is assessed. About 2 ml of six compositions (R1-R6), set forth above in Table 19-A, are each applied to the bottom of five separate jars. Thyme Crystals (5%, by weight) are combined with the six compositions (R1-R6) to produce six formulations. About 2 ml of each formulation is applied to five separate jars.
[…] Mortality is recorded about 24 hours after exposure. […] Mortality is recorded about 24 hours after each exposure.

[4] = system: American cockroaches; assay: Treated jar test, knockdown and mortality time: Blend 41, deltamethrin, combination; assay type: in vivo, American cockroach; details: average of 3 replicates, 5 roaches each
Procedure: To test efficacy of the composition, a small amount of each test chemical is introduced to a separate jar. About 3 to 5 American cockroaches are introduced to each jar at different time intervals. Mortality and/or immobilization (knockdown, KD) data is recorded and compared. Such data is recorded as seconds (s) following introduction of the insect to the treated jar. The resulting data is contained in the following table.
The data is the average of 3 replicates, 5 roaches in each replicate.

[5] = system: German Cockroach; assay: Bioactivity of Blend 13, deltamethrin and combination; assay type: in vivo
[6] = system: Drosophila S2 cells; assay: cAMP response in cells treated with Blend 41, imidacloprid and combinations; assay type: cell-based
Source text: FIG. 23 is a bar graph showing percent knockdown in response to treatment of Aedes aegypti with various compositions of including Blend 41 alone, Imidacloprid alone, and combinations of Blend 41 and Imidacloprid. FIG. 24 is a bar graph showing percent knockdown in response to treatment of Aedes aegypti with various compositions of including Blend 41 alone, Imidacloprid alone, and combinations of Blend 41 and Imidacloprid. FIG. 25 is a bar graph showing cAMP signal produced in response to treatment of Drosophila S2 cells treated with various compositions of including Blend 41 alone, Imidacloprid alone, and combinations of Blend 41 and Imidacloprid.

[7] = system: olfactory receptor activation in Drosophila S2 cells; assay: Ca2+ release triggered by olfactory receptor activation in Drosophila S2 cells; assay type: cell-based
Source text: In embodiments of the present invention, a Drosophila Schneider 2 (S2) cell line is stably transfected with a G protein-coupled receptor that is amplified from Drosophila melanogaster head cDNA phage library. The cell line can be used to screen potential active ingredients, as described below.
The potential for insect control activity can be identified by measuring the affinity of the test compositions for the receptor in the cell lines expressing a TyrR, Or83b, and/or Or43a. The potential for insect control activity can also be identified by measuring the change in intracellular cAMP and/or Ca2+ in the cell lines expressing TyrR, Or83b, and/or Or43a following treatment with the test compositions. The gene sequences of the TyrR, the Or 83b receptor and the Or 43a receptor have substantial similarity between various insect species. As such, the Drosophila Schneider cell lines expressing these receptors can be used to screen for compositions having insect control activity in various insect species.
A blend can is prepared and combined with a synthetic pyrethroid such as delatmetrhin. For example, Blend 41 was combined with deltamethrin (DM) and the efficacy of Blend 41 and DM individually were compared to the efficacy of Blend 41 and DM combined. […]

Compound: CCCCCCCCCCCCCC(=O)OC(C)C [Isopropyl myristate, propan-2-yl tetradecanoate]
- Percent of Tested Insects > 1 hr Time to Death ([1]; component at 40%, diluted with acetone): 100%

Compound: Cc1ccc(C(C)C)c(O)c1 [thyme crystal]
- residual activity [2]: does not have residual activity
- residual activity [3]: does not have residual activity

Compound: CC1(C)[C@H](C(=O)O[C@H](C#N)c2cccc(Oc3ccccc3)c2)[C@@H]1C=C(Br)Br [deltamethrin]
- 100% Kill ([4]; time to 100% kill in treated jar): 12 min
- KD ([4]; time to knockdown in treated jar): 140 s
- Bioactivity 100% Kill [5]: 15 min
- Bioactivity KD [5]: 120 s

Compound: O=[N+]([O-])NC1=NCCN1Cc1ccc(Cl)nc1 [imidacloprid]
- cAMP ([6]; 100 PPM): 9.1 nM
- cAMP ([6]; 333 PPM): 9.4 nM
- cAMP ([6]; 500 PPM): 8.8 nM

Compound: CN/C(=N\[N+](=O)[O-])NCc1cnc(Cl)s1 [clothianidin]
- Ca2+ release, single agent alone [7]: increase in Ca^2+ release

Compound: C=C(C)[C@H]1CC=C(C)CC1 [D-Limonene]
- Percent of Tested Insects > 1 hr Time to Death ([1]; component at 83%, diluted with acetone): 25%
- Percent of Tested Insects > 1 hr Time to Death ([1]; component of Blend 31 diluted with acetone, concentration not given): 22.5%
